Measured values: PubChem BioAssay (NCI)
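Growth conditions: 96-well plates. Treatment: test compound, 48 hours, 5 concentrations. Analysis: linear interpolation between bracketing concentrations; unreached endpoints set to highest concentration. GI50: concentration for 50% inhibition of growth. TGI denotes the concentration required for complete inhibition of growth.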

Tests used:
Assay in all cases: NCI-60 cell line screen, 48 h
[1] = system: NCI-H23 lung
[2] = system: NCI-H460 lung
[3] = system: NCI/ADR-RES ovarian
[4] = system: OVCAR-3 ovarian
[5] = system: OVCAR-4 ovarian
[6] = system: OVCAR-5 ovarian
[7] = system: OVCAR-8 ovarian
[8] = system: PC-3 prostate
[9] = system: RPMI-8226 leukemia
[10] = system: RXF 393 renal
[11] = system: SF-268 CNS
[12] = system: SF-295 CNS
[13] = system: SF-539 CNS
[14] = system: SK-MEL-2 melanoma
[15] = system: SK-MEL-28 melanoma
[16] = system: SK-MEL-5 melanoma
[17] = system: SK-OV-3 ovarian
[18] = system: SN12C renal
[19] = system: SNB-19 CNS
[20] = system: SNB-75 CNS
[21] = system: SR leukemia
[22] = system: SW-620 colon
[23] = system: T-47D breast
[24] = system: TK-10 renal
[25] = system: U251 CNS
[26] = system: UACC-62 melanoma
[27] = system: UO-31 renal

With `CCN(CC)CCn1c(=N)n(CC(O)c2ccc(Cl)c(Cl)c2)c2ccccc21` (stereo not drawn) the TGI [1] was 32.5 µM, the GI50 [2] was 4.97 µM and the TGI [2] was 17.9 µM. The GI50 [3] was 17.7 µM, the TGI [3] was 36.8 µM and the GI50 [4] was 11.5 µM. The TGI [4] was 24 µM, the GI50 [5] was 10.6 µM and the TGI [5] was 24.3 µM. It also gave a GI50 [6] of 10.7 µM, a TGI [6] of 22.8 µM and a GI50 [7] of 12.1 µM. The TGI [7] was 25.5 µM, the GI50 [8] was 5.21 µM and the TGI [8] was 19.3 µM. It also gave a GI50 [9] of 2.72 µM, a TGI [9] of 8.02 µM and a GI50 [10] of 2.8 µM. For the same compound, the TGI [10] was 10.9 µM, the GI50 [11] was 11.9 µM and the TGI [11] was 25.3 µM. It also gave a GI50 [12] of 8.87 µM, a TGI [12] of 24.1 µM and a GI50 [13] of 2.86 µM. It also gave a TGI [13] of 10.1 µM, a GI50 [14] of 2.93 µM and a TGI [14] of 8.32 µM. For the same compound, the GI50 [15] was 2.05 µM, the TGI [15] was 4.34 µM and the GI50 [16] was 1.73 µM. For the same compound, the TGI [16] was 3.15 µM, the GI50 [17] was 11.9 µM and the TGI [17] was 24.1 µM. For the same compound, the GI50 [18] was 8.79 µM, the TGI [18] was 24.2 µM and the GI50 [19] was 13.5 µM. It also gave a TGI [19] of 28.8 µM, a GI50 [20] of 10.6 µM and a TGI [20] of 23.8 µM. The GI50 [21] was 2.12 µM, the TGI [21] was 5.56 µM and the GI50 [22] was 11 µM. It also gave a TGI [22] of 24.8 µM, a GI50 [23] of 4.68 µM and a TGI [23] of 19.3 µM. For the same compound, the GI50 [24] was 14.1 µM, the TGI [24] was 27.1 µM and the GI50 [25] was 2.82 µM. For the same compound, the TGI [25] was 9.04 µM, the GI50 [26] was 1.94 µM and the TGI [26] was 3.89 µM. The GI50 [27] was 6.97 µM and the TGI [27] was 20.4 µM.
